For orientation: IC50 means the midpoint of a concentration-inhibition curve.

Human M3 receptor, sequence (P20309 whole entry): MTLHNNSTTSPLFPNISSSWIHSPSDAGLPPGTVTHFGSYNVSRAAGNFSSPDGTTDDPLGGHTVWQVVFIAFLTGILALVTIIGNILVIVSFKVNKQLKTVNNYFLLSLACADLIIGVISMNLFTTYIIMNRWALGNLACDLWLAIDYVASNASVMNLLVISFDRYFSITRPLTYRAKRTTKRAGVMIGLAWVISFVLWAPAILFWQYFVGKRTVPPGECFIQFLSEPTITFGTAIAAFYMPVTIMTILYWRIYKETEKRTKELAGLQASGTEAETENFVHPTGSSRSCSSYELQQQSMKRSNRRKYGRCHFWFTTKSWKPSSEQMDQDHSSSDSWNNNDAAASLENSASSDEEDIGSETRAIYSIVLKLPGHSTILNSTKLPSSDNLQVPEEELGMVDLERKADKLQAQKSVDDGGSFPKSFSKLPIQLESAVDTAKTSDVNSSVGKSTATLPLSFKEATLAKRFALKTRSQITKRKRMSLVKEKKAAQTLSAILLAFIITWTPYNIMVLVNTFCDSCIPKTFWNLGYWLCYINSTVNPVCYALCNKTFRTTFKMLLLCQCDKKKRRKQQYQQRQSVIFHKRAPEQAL

The target of one assay is Human M3 receptor (Homo sapiens (Human), UniProt P20309). Kind of assay: M3 receptor radioligand binding assay. The conditions noted are these: M3 IC50 Activity. The procedure:
M3 Receptor Radioligand Binding Assay:
The assay is carried out in 96-well polypropylene plates in a volume of 250 μl. […] The final assay concentration of DMSO is 0.5% (v/v). The plates are sealed and incubated for 2 h at room temperature on an orbital shaker (slow speed). Membranes are harvested onto 96-well unifilter GF/C filter plates pre-treated with 0.5% polyethyleneimine (v/v), using a filter manifold, washed four times with […] of assay buffer. The plates are dried before addition of 50 μl of microscint-0, sealed then read in a Trilux Microbeta scintillation counter. IC50 values are determined from competition curves using a non-linear curve fitting program. Ki values are calculated from IC50 values by the Cheng and Prusoff equation.
`COc1ccc([C@H](Cc2c(Cl)c[n+]([O-])cc2Cl)OC(=O)c2ccc(CNCC(C)(C(=O)O[C@H]3CN4CCC3CC4)c3ccccc3)s2)cc1OC` (stereo partly drawn) [Example 30, [(1S)-2-(3,5-dichloro-1-oxido-pyridin-1-ium-4-yl)-1-(3,4-dimethoxyphenyl)ethyl] 5-[[[2-methyl-3-oxo-2-phenyl-3-[(3R)-quinuclidin-3-yl]oxy-propyl]amino]methyl]thiophene-2-carboxylate] registered a concentration for half-maximal inhibition (IC50) of 1 to 10 nM.

Still in this assay, the particulars now being: M3 Receptor radioligand binding assay; read-out: M3 IC50 Activity.
Turning to `COc1ccc([C@H](Cc2c(Cl)c[n+]([O-])cc2Cl)OC(=O)c2ccc(CNCC(C)(C(=O)OC3CCN(C)CC3)c3ccccc3)s2)cc1OC` (stereo partly drawn) [Example 24, [(1S)-2-(3,5-dichloro-1-oxido-pyridin-1-ium-4-yl)-1-(3,4-dimethoxyphenyl)ethyl] 5-[[[2-methyl-3-[(1-methyl-4-piperidyl)oxy]-3-oxo-2-phenyl-propyl]amino]methyl]thiophene-2-carboxylate], the IC50 was 10 to 100 nM.
Same read-out and setting: for `COc1ccc([C@H](Cc2c(Cl)c[n+]([O-])cc2Cl)OC(=O)c2ccc(CNCC(C)(C(=O)OCCN(C)C)c3ccccc3)s2)cc1OC` (single isomer, unassigned) [Example 28] the value was 10 to 100 nM; for `COc1ccc([C@H](Cc2c(Cl)c[n+]([O-])cc2Cl)OC(=O)c2ccc(CNCC(C)(C(=O)OCCN(C)C)c3ccccc3)s2)cc1OC` (stereo partly drawn) [Example 9, [(1S)-2-(3,5-dichloro-1-oxido-pyridin-1-ium-4-yl)-1-(3,4-dimethoxyphenyl)ethyl] 5-[[[3-(2-dimethylaminoethyloxy)-2-methyl-3-oxo-2-phenyl-propyl]amino]methyl]thiophene-2-carboxylate], 10 to 100 nM.
`COc1ccc([C@H](Cc2c(Cl)c[n+]([O-])cc2Cl)OC(=O)c2ccc(CNCC(C)(C(=O)OC3CCN(C)CC3)c3ccccc3)s2)cc1OC` (stereo partly drawn) [Example 8, [(1S)-2-(3,5-dichloro-1-oxido-pyridin-1-ium-4-yl)-1-(3,4-dimethoxyphenyl)ethyl] 5-[[[2-methyl-3-[(1-methyl-4-piperidyl)oxy]-3-oxo-2-phenyl-propyl]amino]methyl]thiophene-2-carboxylate]: the IC50 lay in the range of 10 to 100 nM.
Take `COc1ccc([C@H](Cc2c(Cl)c[n+]([O-])cc2Cl)OC(=O)c2ccc(CNCC(C(=O)OC3CCN(C)CC3)c3ccccc3)s2)cc1OC` (stereo partly drawn) [Example 5, [(1S)-2-(3,5-dichloro-1-oxido-pyridin-1-ium-4-yl)-1-(3,4-dimethoxyphenyl)ethyl] 5-[[[3-[(1-methyl-4-piperidyl)oxy]-3-oxo-2-phenyl-propyl]amino]methyl]thiophene-2-carboxylate]: the IC50 was 1 to 10 nM.

For a further assay, the target named is Human recombinant PDE4B2 (Homo sapiens (Human), UniProt Q07343). Put plainly: PDE4B2 HTRF assay. The assay is classed as biochemical. The conditions noted are these: read-out: PDE4B2 IC50 Activity. The procedure: PDE4B2 activity is detected using the LANCE Ultra cAMP homogeneous time resolved fluorescence resonance energy transfer (TR-FRET) assay from Perkin Elmer. The assay is based on the competition between the europium (Eu) chelate-labeled cAMP tracer and sample cAMP for binding sites on cAMP-specific monoclonal antibodies (mAb) labelled with the ULight™ dye. The assay is carried out in 384-well low volume plates in a volume of 10 μl. Human recombinant PDE4B2 (80 pM) is incubated for 2 h with 3 nM cAMP in buffer containing 1×HBSS, 5 mM HEPES, 3 mM MgCl2, 0.1% BSA, pH 7.4 with or without test compounds. The enzymatic reactions are efficiently stopped by the addition of 500 μM IBMX present in the combined Stop/Detection buffer containing europium (Eu) chelate-labeled cAMP tracer and cAMP-specific monoclonal antibodies (mAb) labelled with the ULight™ dye. […] IC50 values are determined from competition curves using a non-linear curve fitting program.
Human recombinant PDE4B2, sequence (Q07343 other isoform, or with tags, fused parts or gaps): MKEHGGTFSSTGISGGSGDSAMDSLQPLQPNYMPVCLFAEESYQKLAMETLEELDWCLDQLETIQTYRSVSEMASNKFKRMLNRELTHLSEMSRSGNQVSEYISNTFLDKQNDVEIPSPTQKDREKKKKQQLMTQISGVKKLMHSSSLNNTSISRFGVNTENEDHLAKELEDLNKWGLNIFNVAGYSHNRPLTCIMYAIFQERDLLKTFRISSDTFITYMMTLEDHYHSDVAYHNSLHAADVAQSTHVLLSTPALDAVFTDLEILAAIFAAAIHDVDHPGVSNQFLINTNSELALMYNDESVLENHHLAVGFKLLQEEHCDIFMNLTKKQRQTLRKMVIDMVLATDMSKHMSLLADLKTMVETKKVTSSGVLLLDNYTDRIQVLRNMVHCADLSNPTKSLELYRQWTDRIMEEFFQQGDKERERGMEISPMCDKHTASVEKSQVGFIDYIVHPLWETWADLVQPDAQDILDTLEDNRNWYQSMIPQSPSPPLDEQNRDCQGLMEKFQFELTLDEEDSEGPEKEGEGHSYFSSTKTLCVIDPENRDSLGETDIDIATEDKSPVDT
(In general: TR-FRET usually uses a lanthanide donor and a delayed reading to cut background.)
Consider `COc1ccc([C@H](Cc2c(Cl)c[n+]([O-])cc2Cl)OC(=O)c2ccc(CNCC(C)(C(=O)O[C@H]3CN4CCC3CC4)c3ccccc3)s2)cc1OC` (stereo partly drawn) [Example 7, [(1S)-2-(3,5-dichloro-1-oxido-pyridin-1-ium-4-yl)-1-(3,4-dimethoxyphenyl)ethyl] 5-[[[2-methyl-3-oxo-2-phenyl-3-[(3R)-quinuclidin-3-yl]oxy-propyl]amino]methyl]thiophene-2-carboxylate], for which the IC50 was 1 to 10 nM.
As for `COc1ccc([C@H](Cc2c(Cl)c[n+]([O-])cc2Cl)OC(=O)c2ccc(CN(C)CC(C)(C(=O)O[C@H]3CN4CCC3CC4)c3ccccc3)s2)cc1OC` (stereo partly drawn) [Example 27, [(1S)-2-(3,5-dichloro-1-oxido-pyridin-1-ium-4-yl)-1-(3,4-dimethoxyphenyl)ethyl] 5-[[methyl-[2-methyl-3-oxo-2-phenyl-3-[(3R)-quinuclidin-3-yl]oxy-propyl]amino]methyl]thiophene-2-carboxylate], the IC50 was 1 to 10 nM.
Turning to `COc1ccc([C@H](Cc2c(Cl)c[n+]([O-])cc2Cl)OC(=O)c2ccc(CNC3CC(C(=O)O[C@H]4CN5CCC4CC5)(c4ccccc4)C3)s2)cc1OC` (stereo partly drawn) [Example 36, [(1S)-2-(3,5-dichloro-1-oxido-pyridin-1-ium-4-yl)-1-(3,4-dimethoxyphenyl)ethyl] 5-[[[3-phenyl-3-[(3R)-quinuclidin-3-yl]oxycarbonyl-cyclobutyl]amino]methyl]thiophene-2-carboxylate], the IC50 lay in the range of 1 to 10 nM.

For the origin of these results see patent US9809582B2, “Aminoester derivatives” (CHIESI FARMACEUTICI S.p.A., priority 2015, dated 2017).
